Experimental data: patent publication US20020137929A1, “1 - (3-heterocyclylphenyl) isothiourea, -isourea, -guanidine and -amidine herbicidal agents” (Intellectual Property Department, BASF Aktiengesellschaft, priority 1998, published 2002)

Experiments:
ABUTH (Velvetleaf) [1] = assay: Postemergence herbicidal evaluation; format: in vivo, Abutilon theophrasti
Summary of the method: (§1)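 Seedlings grown about two weeks were sprayed at 40 psi with compound dispersed in 50/50 acetone/water plus 0.5% TWEEN 20, at about 0.0156 to 0.500 kg/ha. Plants were kept in the greenhouse and scored 4–5 weeks later on a 0–9 visual scale against untreated controls.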

[2] = system: IPOHE (Morningglory, Ivyleaf); assay: Postemergence herbicidal evaluation; format: in vivo, Ipomoea hederacea
Summary of the method: as §1

SETVI (Foxtail, Green) = assay: Postemergence herbicidal evaluation; format: in vivo, Setaria viridis
Summary of the method: as §1

[3] = system: GLXMAW (Soybean, Williams); assay: Postemergence herbicidal evaluation; format: in vivo, Glycine max, (L.) Merr. cv Williams
Summary of the method: as §1

ZEAMX (Corn, Field) = assay: Postemergence herbicidal evaluation; format: in vivo, Zea mays
Summary of the method: as §1

ABUTH (Velvetleaf) [4] = assay: Preemergence herbicidal evaluation; format: in vivo, Abutilon theophrasti; details: rated 4-5 weeks after treatment
Summary of the method: (§2)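 Herbicidal effect scored visually, 0-9, at 4 to 5 weeks against a control; compound applied preemergence by aqueous acetone spray to seeded soil at about 0.0156 to 0.500 kg/ha.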

AMBEL (Ragweed, Common) = assay: Preemergence herbicidal evaluation; format: in vivo, Ambrosia artemisifolia; details: rated 4-5 weeks after treatment
Summary of the method: as §2

CASOB (Sicklepod) = assay: Preemergence herbicidal evaluation; format: in vivo, Cassia obtusifolia; details: rated 4-5 weeks after treatment
Summary of the method: as §2

[5] = system: IPOHE (Morningglory, Ivyleaf); assay: Preemergence herbicidal evaluation; format: in vivo, Ipomoea hederacea; details: rated 4-5 weeks after treatment
Summary of the method: as §2

ECHCG (Barnyardgrass) = assay: Preemergence herbicidal evaluation; format: in vivo, Echinochloa crus-galli; details: rated 4-5 weeks after treatment
Summary of the method: as §2

[6] = system: ECHORC (Watergrass (Calif.)); assay: Preemergence weed control under flooded paddy conditions; format: in vivo, Echinochloa oryzoides; details: rated 3-4 weeks after treatment
Summary of the method: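 Visual injury scored 0-9 against control three to four weeks post-treatment, greenhouse-grown. Application: acetone/water (50/50) solutions dosed directly into flood water (1.5-3 cm over silt loam, planted top 0.5 cm), roughly 0.0313 to 0.500 kg/ha active ingredient.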

CYPSE (Flatsedge) = assay: as above; format: in vivo, Cyperus serotinus; details: rated 3-4 weeks after treatment
Summary of the method: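 Values are visual 0-9 scores against a control for a preemergence application into paddy flood water at about 0.0313 to 0.500 kg/ha. Greenhouse duration was three to four weeks.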

[7] = system: ECHORC (Watergrass (Calif.)); assay: Postemergence weed control under flooded paddy conditions; format: in vivo, Echinochloa oryzoides; details: postemergence weeds, rated 3 to 4 weeks after treatment
Summary of the method: (§3)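 Injury ratings (0–9 scale covering stand, vigor, malformation, size, chlorosis and overall appearance versus control) were made three to four weeks after treatment. Test material, about 0.0313 to 0.500 kg/ha a.i. in 50/50 v/v aqueous/acetone, was added to flood water 1.5 to 3 cm deep over 3 to 5 cm weeds and 1.5 to 2.5 leaf rice.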

CYPIR (Rice Flatsedge) = assay: as above; format: in vivo, Cyperus iria; details: postemergence weeds, rated 3 to 4 weeks after treatment
Summary of the method: as §3

C=CCN1C(=O)C(CC(=O)OC)SC1=Nc1cc(-n2c(=O)cc(C(F)(F)F)n(C)c2=O)c(F)cc1Cl (centres unmarked) [Compound 64, Methyl 3-allyl-2-{{2-chloro-5-[3,6-dihydro-3-methyl-2,6-dioxo-4-(trifluoromethyl)-1(2H)-pyrimidinyl]-4-fluorophenyl}imino}-4-oxo-5-thiazolidineacetate]
Postemergence herbicidal rating ABUTH (ABUTH (Velvetleaf) [1]; Rate 0.0158 kg/ha): 9.0
Postemergence herbicidal rating ABUTH (ABUTH (Velvetleaf) [1]; Rate 0.0315 kg/ha): 9.0
Postemergence herbicidal rating ABUTH (ABUTH (Velvetleaf) [1]; Rate 0.0630 kg/ha): 9.0
Postemergence herbicidal rating IPOHE ([2]; Rate 0.0158 kg/ha): 9.0
Postemergence herbicidal rating IPOHE ([2]; Rate 0.0315 kg/ha): 9.0
Postemergence herbicidal rating IPOHE ([2]; Rate 0.0630 kg/ha): 9.0
Postemergence herbicidal rating SETVI (SETVI (Foxtail, Green); Rate 0.0158 kg/ha): 6.0
Postemergence herbicidal rating SETVI (SETVI (Foxtail, Green); Rate 0.0315 kg/ha): 7.0
Postemergence herbicidal rating SETVI (SETVI (Foxtail, Green); Rate 0.0630 kg/ha): 9.0
Postemergence herbicidal rating GLXMAW ([3]; Rate 0.0158 kg/ha): 7.0
Postemergence herbicidal rating GLXMAW ([3]; Rate 0.0315 kg/ha): 7.5
Postemergence herbicidal rating GLXMAW ([3]; Rate 0.0630 kg/ha): 7.5
Postemergence herbicidal rating ZEAMX (ZEAMX (Corn, Field); Rate 0.0158 kg/ha): 7.0
Postemergence herbicidal rating ZEAMX (ZEAMX (Corn, Field); Rate 0.0315 kg/ha): 8.0
Postemergence herbicidal rating ZEAMX (ZEAMX (Corn, Field); Rate 0.0630 kg/ha): 8.0
Preemergence herbicidal rating ABUTH (ABUTH (Velvetleaf) [4]; rate 0.0156 kg/ha): 1.0
Preemergence herbicidal rating ABUTH (ABUTH (Velvetleaf) [4]; rate 0.0313 kg/ha): 9.0
Preemergence herbicidal rating ABUTH (ABUTH (Velvetleaf) [4]; rate 0.0625 kg/ha): 9.0
Preemergence herbicidal rating ABUTH (ABUTH (Velvetleaf) [4]; rate 0.1250 kg/ha): 9.0
Preemergence herbicidal rating ABUTH (ABUTH (Velvetleaf) [4]; rate 0.2500 kg/ha): 9.0
Preemergence herbicidal rating AMBEL (AMBEL (Ragweed, Common); rate 0.0156 kg/ha): 2.0
Preemergence herbicidal rating AMBEL (AMBEL (Ragweed, Common); rate 0.0313 kg/ha): 6.0
Preemergence herbicidal rating AMBEL (AMBEL (Ragweed, Common); rate 0.0625 kg/ha): 7.0
Preemergence herbicidal rating AMBEL (AMBEL (Ragweed, Common); rate 0.1250 kg/ha): 9.0
Preemergence herbicidal rating AMBEL (AMBEL (Ragweed, Common); rate 0.2500 kg/ha): 9.0
Preemergence herbicidal rating CASOB (CASOB (Sicklepod); rate 0.0156 kg/ha): 0.0
Preemergence herbicidal rating CASOB (CASOB (Sicklepod); rate 0.0313 kg/ha): 0.0
Preemergence herbicidal rating CASOB (CASOB (Sicklepod); rate 0.0625 kg/ha): 1.0
Preemergence herbicidal rating CASOB (CASOB (Sicklepod); rate 0.1250 kg/ha): 5.0
Preemergence herbicidal rating CASOB (CASOB (Sicklepod); rate 0.2500 kg/ha): 4.0
Preemergence herbicidal rating IPOHE ([5]; rate 0.0156 kg/ha): 0.0
Preemergence herbicidal rating IPOHE ([5]; rate 0.0313 kg/ha): 0.0
Preemergence herbicidal rating IPOHE ([5]; rate 0.0625 kg/ha): 9.0
Preemergence herbicidal rating IPOHE ([5]; rate 0.1250 kg/ha): 9.0
Preemergence herbicidal rating IPOHE ([5]; rate 0.2500 kg/ha): 9.0
Preemergence herbicidal rating ECHCG (ECHCG (Barnyardgrass); rate 0.0156 kg/ha): 0.0
Preemergence herbicidal rating ECHCG (ECHCG (Barnyardgrass); rate 0.0313 kg/ha): 0.0
Preemergence herbicidal rating ECHCG (ECHCG (Barnyardgrass); rate 0.0625 kg/ha): 1.0
Preemergence herbicidal rating ECHCG (ECHCG (Barnyardgrass); rate 0.1250 kg/ha): 3.0
Preemergence herbicidal rating ECHCG (ECHCG (Barnyardgrass); rate 0.2500 kg/ha): 6.0
ECHORC herbicidal effect rating ([6]; 0.0313 kg/ha): 5.0
ECHORC herbicidal effect rating ([6]; 0.0625 kg/ha): 6.0
ECHORC herbicidal effect rating ([6]; 0.1250 kg/ha): 6.0
ECHORC herbicidal effect rating ([6]; 0.2500 kg/ha): 9.0
CYPSE herbicidal effect rating (CYPSE (Flatsedge); 0.0313 kg/ha): 0.0
CYPSE herbicidal effect rating (CYPSE (Flatsedge); 0.0625 kg/ha): 0.0
CYPSE herbicidal effect rating (CYPSE (Flatsedge); 0.1250 kg/ha): 0.0
CYPSE herbicidal effect rating (CYPSE (Flatsedge); 0.2500 kg/ha): 0.0
Herbicidal rating ECHORC ([7]; Rate 0.0313 kg/ha): 5.0
Herbicidal rating ECHORC ([7]; Rate 0.0625 kg/ha): 6.0
Herbicidal rating ECHORC ([7]; Rate 0.1250 kg/ha): 6.0
Herbicidal rating ECHORC ([7]; Rate 0.2500 kg/ha): 9.0
Herbicidal rating CYPIR (CYPIR (Rice Flatsedge); Rate 0.0313 kg/ha): 0.0
Herbicidal rating CYPIR (CYPIR (Rice Flatsedge); Rate 0.0625 kg/ha): 2.0
Herbicidal rating CYPIR (CYPIR (Rice Flatsedge); Rate 0.1250 kg/ha): 2.0
Herbicidal rating CYPIR (CYPIR (Rice Flatsedge); Rate 0.2500 kg/ha): 7.0
